Experimental data reported in patent publication US10668043B2, “Potentiated antimicrobial agents” (priority 2014, dated 2020).

System: E. coli
Test: Double dilution test
Format: cell-based
Source text: The double dilution test is a MIC measurement test made on successive dilutions of the 2 products of the composition. […] The summary table expresses for each strain and for each dilution of the booster the measured antibiotic MIC.
The code enabling the results to be interpreted is the following one: no sign “^+” if the MIC is equivalent with and without booster, a sign “^+” if the value is lower with booster.

CC1(C)S[C@@H]2[C@H](NC(=O)[C@H](N)c3ccc(O)cc3)C(=O)N2[C@H]1C(=O)O [Amox, amoxicillin]
amoxicillin MIC (strain 8137, Amox, cineol 0): 8 µg/mL | amoxicillin MIC (strain 8137, cineol 10 mg/L): 0.5^+ | amoxicillin MIC (strain 8137, cineol 20 mg/L): 8 µg/mL | amoxicillin MIC (strain 8137, cineol 37.5 mg/L): 8 µg/mL | amoxicillin MIC (strain 8137, cineol 75 mg/L): 8 µg/mL | amoxicillin MIC (strain 8137, cineol 150 mg/L): 8 µg/mL | amoxicillin MIC (strain 8137, cineol 300 mg/L): 8 µg/mL | amoxicillin MIC (strain 8137, cineol 600 mg/L): 8 µg/mL | amoxicillin MIC (strain 8137, cineol 2,500 mg/L): 8 µg/mL | amoxicillin MIC (strain 8137, cineol 5,000 mg/L): 8 µg/mL | amoxicillin MIC (strain 8137, cineol 25,000 mg/L): 4^+ | amoxicillin MIC (strain 8137, cineol 50,000 mg/L): 0.25^+ | amoxicillin MIC (strain 8137, cineol […]): 8 µg/mL | amoxicillin MIC (strain 8151, Amox, cineol 0): 8 µg/mL | amoxicillin MIC (strain 8151, cineol 10 mg/L): 0.5^+ | amoxicillin MIC (strain 8151, cineol 20 mg/L): 8 µg/mL | amoxicillin MIC (strain 8151, cineol 37.5 mg/L): 8 µg/mL | amoxicillin MIC (strain 8151, cineol 75 mg/L): 8 µg/mL | amoxicillin MIC (strain 8151, cineol 150 mg/L): 8 µg/mL | amoxicillin MIC (strain 8151, cineol 300 mg/L): 8 µg/mL | amoxicillin MIC (strain 8151, cineol 600 mg/L): 8 µg/mL | amoxicillin MIC (strain 8151, cineol 2,500 mg/L): 8 µg/mL | amoxicillin MIC (strain 8151, cineol 5,000 mg/L): 8 µg/mL | amoxicillin MIC (strain 8151, cineol 10,000 mg/L): 4^+ | amoxicillin MIC (strain 8151, cineol 25,000 mg/L): 4^+ | amoxicillin MIC (strain 8151, cineol 50,000 mg/L): 0.25^+ | amoxicillin MIC (strain 8151, cineol […]): 8 µg/mL | amoxicillin MIC (strain 8155, Amox, cineol 0): 8 µg/mL | amoxicillin MIC (strain 8155, cineol 10 mg/L): 0.5^+ | amoxicillin MIC (strain 8155, cineol 20 mg/L): 8 µg/mL | amoxicillin MIC (strain 8155, cineol 37.5 mg/L): 8 µg/mL | amoxicillin MIC (strain 8155, cineol 75 mg/L): 8 µg/mL | amoxicillin MIC (strain 8155, cineol 150 mg/L): 8 µg/mL | amoxicillin MIC (strain 8155, cineol 300 mg/L): 8 µg/mL | amoxicillin MIC (strain 8155, cineol 600 mg/L): 8 µg/mL | amoxicillin MIC (strain 8155, cineol 2,500 mg/L): 8 µg/mL | amoxicillin MIC (strain 8155, cineol 5,000 mg/L): 8 µg/mL | amoxicillin MIC (strain 8155, cineol 10,000 mg/L): 8 µg/mL | amoxicillin MIC (strain 8155, cineol 25,000 mg/L): 4^ | amoxicillin MIC (strain 8155, cineol 50,000 mg/L): 0.25^+ | amoxicillin MIC (strain 8155, cineol […]): 8 µg/mL | amoxicillin MIC (strain 8156, Amox, cineol 0): 8 µg/mL | amoxicillin MIC (strain 8156, cineol 10 mg/L): 0.5^+ | amoxicillin MIC (strain 8156, cineol 20 mg/L): 8 µg/mL | amoxicillin MIC (strain 8156, cineol 37.5 mg/L): 8 µg/mL | amoxicillin MIC (strain 8156, cineol 75 mg/L): 8 µg/mL | amoxicillin MIC (strain 8156, cineol 150 mg/L): 8 µg/mL | amoxicillin MIC (strain 8156, cineol 300 mg/L): 8 µg/mL | amoxicillin MIC (strain 8156, cineol 600 mg/L): 8 µg/mL | amoxicillin MIC (strain 8156, cineol 2,500 mg/L): 16 µg/mL | amoxicillin MIC (strain 8156, cineol 5,000 mg/L): 8 µg/mL | amoxicillin MIC (strain 8156, cineol 10,000 mg/L): 8 µg/mL | amoxicillin MIC (strain 8156, cineol 25,000 mg/L): 8^ | amoxicillin MIC (strain 8156, cineol 50,000 mg/L): 4^+ | amoxicillin MIC (strain 8156, cineol […]): 8 µg/mL | amoxicillin MIC (strain ATCC 25922, Amox, cineol 0): 8 µg/mL | amoxicillin MIC (strain ATCC 25922, cineol 10 mg/L): 0.5^+ | amoxicillin MIC (strain ATCC 25922, cineol 20 mg/L): 8 µg/mL | amoxicillin MIC (strain ATCC 25922, cineol 37.5 mg/L): 8 µg/mL | amoxicillin MIC (strain ATCC 25922, cineol 75 mg/L): 8 µg/mL | amoxicillin MIC (strain ATCC 25922, cineol 150 mg/L): 8 µg/mL | amoxicillin MIC (strain ATCC 25922, cineol 300 mg/L): 8 µg/mL | amoxicillin MIC (strain ATCC 25922, cineol 600 mg/L): 8 µg/mL | amoxicillin MIC (strain ATCC 25922, cineol 2,500 mg/L): 16 µg/mL | amoxicillin MIC (strain ATCC 25922, cineol 5,000 mg/L): 8 µg/mL | amoxicillin MIC (strain ATCC 25922, cineol 25,000 mg/L): 4^+ | amoxicillin MIC (strain ATCC 25922, cineol 50,000 mg/L): 0.06^+
